Measurements: patent US20240165135A1, “COMPOSITIONS AND METHODS FOR THE TREATMENT OF CANCER” (The State of Israel, Ministry of Agriculture & Rural …, priority 2021, published 2024)
Marks after values point to notes of the source that are not given here.

Assays:
Assay type in all cases: cell-based, Human
A172 cells [1] = assay: Cell cycle analysis, PI staining, FACS, A172; conditions: 24 hours; SM 10 μg/mL, Doxo 0.5 μg/mL; control 10.2%
Method: Cell cycle analysis—A172 cells were seeded in 6-well TC plate at a concentration of 4×10^5 cells in 2 mL of SFM per well. Following 24 hours incubation, cells were treated with indicated treatments in complete medium for 24 hours. Methanol and doxorubicin were used as negative and positive controls, respectively. Cells were harvested and centrifuged for 5 minutes at 1600 rpm. Cell pellets were washed once with 1 mL of PBS and fixed with 70% cold ethanol overnight at −20° C. The fixed cells were washed twice with 1 mL of PBS and stained with 250 μL of PI solution (50 μg/mL) containing RNase A (100 μg/mL) for 30 minutes in dark conditions. 250 μL PBS was added to each tube and the cells were analyzed using FACS.

A172 cells [2] = assay: F-actin staining, confocal imaging of A172 cytoskeleton; conditions: 24 hours; F4 12 μg/mL, F5 10 μg/mL, Doxo 0.5 μg/mL
Method: Cell staining—EasyProbes™ ActinRed 555 Stain was used for F-actin staining and Hoechst 33342 (ABP Biosciences, USA) for nuclei staining, according to the manufacturer's instructions. Briefly, cells were seeded on confocal dishes (D35-20-1.5-N, Cellvis, USA) at a density of 2×10^4 in 500 μL complete medium. Following 24 hours incubation, the indicated treatments at different concentrations were added for additional 24 hours. For the staining process, cells were washed with PBS and fixed with 3.7% formaldehyde solution in PBS and incubated at room temperature for 10 minutes followed by incubation in 0.1% Triton X-100 (T8787; Sigma Aldrich, USA) for 5 minutes, washing with PBS and incubation in 1% BSA (A7284; Sigma Aldrich, USA) solution for 30 minutes. Two drops of EasyProbes™ Actin and of Hoechst were applied to each of the samples for 20 minutes. […] The number of F-actin filaments was quantified as the number of filaments that crosse a line that is drawn electronically across the soma. Percentage of filaments in the different treatments was calculated out of the average number of filaments in the control.

U87 cells = assay: 3D models (hydrogel) of U87 cells: colonies and Alamar Blue viability; conditions: U87 from 3D structures, 48 hours; Doxorubicin 2, F4 20, F4-SM 12.5, F5 16.5, F5-SM 10 μg/ml; control 98.52
Method: 3D models—Hydrogels (AGFCH) included Sigma-Aldrich products and were prepared using alginate (W201502; Sigma-Aldrich, USA) 22.5 mg/mL, gelatin (G9764; Bio-Basic, USA) 45 mg/mL, fibrinogen (F38791; Sigma-Aldrich, USA) 50 mg/mL, collagen (C9791; Sigma-Aldrich, USA) 2.2 mg/mL and hyaluronic acid (O8185; Sigma-Aldrich, USA) 2 mg/mL in PBS-glycerol solvent. The gel (AGFCH) was mixed with U87 cells at a concentration of 2×10^6 cells per 400 μL gel. The solutions were mixed gently and transferred as 25 μL of gel solution to a 24-well plate. 3D models were cross-linked using CaCl2 (A610050; Bio-Basic, USA) and thrombin (SRP6557; Sigma-Aldrich, USA) for 5 minutes, following the 3D structure was washed with PBS and then immersed in 1 mL of EMEM complete medium. Cells in the 3D structures were allowed to grow for 2 days and then the indicated treatments were administered for 8 days (treatments were repeated every 2 days). Structures were stained using EasyProbe Hoechst, as described above. To assess cell viability, the 3D structure was digested using 200 μL of 0.05M sodium citrate (C3434; Sigma-Aldrich, USA) and 0.05M EDTA (03-052-1A; Biological Industries, Israel) solution for 5 minutes. […] Percentage of colony in the different treatments was calculated out of average number of colonies in the control.

COc1cccc2c1C(=O)c1c(O)c3c(c(O)c1C2=O)C[C@@](O)(C(=O)CO)C[C@@H]3O[C@H]1C[C@H](N)[C@H](O)[C@H](C)O1 [Doxorubicin]
percentage of cells in the G2-M phase (A172 cells [1]): 11.6%
F-actin network / structures (A172 cells [2]): less pronounced in comparison to that of F4 or F5
Mean (% of Live cells) (U87 cells): 37.22 ± 3.08^c %
